Values after ≈ are worked out from the molar mass of the structure shown.
Assays:
Format in all cases: cell-based
HIV-1(IIIB) = test: Inhibition of HIV-1 induced syncytium formation in CEM cells, wild type; details: Table 2B, WT = HIV-1(IIIB), day 4, averages of 2 to 3 independent experiments; for EC50: Human immunodeficiency virus 1, IIIB, CCRF-CEM, 96 h, read-out: Antiviral Activity of Comparative Compounds EC50, WT
Summary of the method: (§1)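 CEM cells (≈300,000 cells/ml) were infected with about 100 CCID50 of HIV-1(IIIB) or an RT mutant strain and added to 5-fold serial dilutions of test compound. Inhibition of HIV-1-induced syncytium formation was scored microscopically on day 4 post infection.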

HIV-1/100-Ile = test: Inhibition of HIV-1 induced syncytium formation in CEM cells, RT mutant 100-Ile; details: Table 2B, day 4, averages of 2 to 3 independent experiments; for EC50: Human immunodeficiency virus 1, CCRF-CEM, 96 h, read-out: Antiviral Activity of Comparative Compounds EC50, 100-Ile
Summary of the method: as §1

HIV-1/103-Asn = test: Inhibition of HIV-1 induced syncytium formation in CEM cells, RT mutant 103-Asn; details: Human immunodeficiency virus 1, CCRF-CEM, 96 h, Table 2B, day 4, averages of 2 to 3 independent experiments, read-out: Antiviral Activity of Comparative Compounds EC50, 103-Asn
Excerpt: (§2) CEM cells were obtained from the American Tissue Cell Culture Collection (Rockville, Md.). HIV-1(IIIB) was originally obtained from the culture supernatant of persistently HIV-1-infected H9 cells and was provided by R. C. Gallo and M. Popovic (National Cancer Institute, National Institutes of Health, Bethesda, Md.). […] 67: 5353-5359 (1993); HIV-1/Lys-138 ("Lys-138") was selected for resistance against TSAO-m^3T as described in Balzarini et al, Virology 192: 246-253 (1993) and Balzarini et al, Proc. Nat. Acad. Sci. USA 90: 6952-6956 (1993); HIV-1/181-Cys ("181-Cys") was selected for resistance against pyridinone L-697,661 as described in Balzarini et al, Virology 192: 246-253 (1993); and HIV-1/188-His ("188-His") was selected for resistance against HEPT as described in Balzarini et al, Mol. Pharmocol. 44: 694-701 (1993). 188-His was then further converted to HIV-1/188-Leu "188-Leu") upon further passage in cell culture in the absence of the HEPT.
(§3) CEM cells were suspended at ≈300,000 cells per ml of culture medium and infected with approximately 100 CCID50 (CCID50 being the 50% cell culture infective dose) of HIV-1(IIIB) or one of the HIV-1 RT mutant strains described above. Then 100 μl of the infected cell suspensions was added to 200 μl microtiter plate wells containing 100 μl of appropriate serial (5-fold) dilutions of the test compounds. The inhibitory effect of the test compounds on HIV-1 induced syncytium formation in CEM cells was examined microscopically on day 4 post infection.

HIV-1/106-Ala = test: Inhibition of HIV-1 induced syncytium formation in CEM cells, RT mutant 106-Ala; details: Table 2B, day 4, averages of 2 to 3 independent experiments; for EC50: Human immunodeficiency virus 1, CCRF-CEM, 96 h, read-out: Antiviral Activity of Comparative Compounds EC50, 106-Ala
Summary of the method: as §1

HIV-1/Lys-138 = test: Inhibition of HIV-1 induced syncytium formation in CEM cells, RT mutant 138-Lys; details: Table 2B, day 4, averages of 2 to 3 independent experiments; for EC50: Human immunodeficiency virus 1, CCRF-CEM, 96 h, read-out: Antiviral Activity of Comparative Compounds EC50, 138-Lys
Summary of the method: as §1

HIV-1/181-Cys = test: Inhibition of HIV-1 induced syncytium formation in CEM cells, RT mutant 181-Cys; details: Table 2B, day 4, averages of 2 to 3 independent experiments; for EC50: Human immunodeficiency virus 1, CCRF-CEM, 96 h, read-out: Antiviral Activity of Comparative Compounds EC50, 181-Cys
Summary of the method: as §1

HIV-1/188-Leu = test: Inhibition of HIV-1 induced syncytium formation in CEM cells, RT mutant 188-Leu; details: Human immunodeficiency virus 1, CCRF-CEM, 96 h, Table 2B, day 4, averages of 2 to 3 independent experiments, read-out: Antiviral Activity of Comparative Compounds EC50, 188-Leu
Excerpt: as §2, §3

CEM cells = test: in vitro; details: Table 2B; CEM cell proliferation; averages of 2 to 3 independent experiments
Summary of the method: (§4)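 In CEM cells, the cytostatic value is the compound concentration giving 50% inhibition of cell proliferation. Parallel work used HIV-1(IIIB) and culture-selected resistant strains Lys-138, 181-Cys, 188-His and 188-Leu.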

in vitro = details: human, cem cells, CC50 (50% cytostatic concentration), Table 2B; CEM cell proliferation; averages of 2 to 3 independent experiments
Summary of the method: as §4

Structure (SMILES)	Antiviral Activity of Comparative Compounds EC50, WT (HIV-1(IIIB)) [µg/mL]	Antiviral Activity of Comparative Compounds EC50, 100-Ile (HIV-1/100-Ile) [µg/mL]	EC50 (HIV-1/103-Asn) [µg/mL]	Antiviral Activity of Comparative Compounds EC50, 106-Ala (HIV-1/106-Ala) [µg/mL]	Antiviral Activity of Comparative Compounds EC50, 138-Lys (HIV-1/Lys-138) [µg/mL]	Antiviral Activity of Comparative Compounds EC50, 181-Cys (HIV-1/181-Cys) [µg/mL]	EC50 (HIV-1/188-Leu) [µg/mL]	CC50 (50% cytostatic concentration) (CEM cells) [µg/mL]	EC50 (HIV-1(IIIB)) [µg/mL]	EC50 (HIV-1/100-Ile) [µg/mL]	EC50 (HIV-1/106-Ala) [µg/mL]	EC50 (HIV-1/Lys-138) [µg/mL]	EC50 (HIV-1/181-Cys) [µg/mL]	CC50 (in vitro) [µg/mL]
Cc1sccc1C(=S)Nc1ccc(Cl)c(C(=O)OC2CCCCC2)c1 [Compound 9]	0.0032	0.057	0.13 (≈ 0.33 µM)	0.03	0.02	0.032	≥ 2	6.0 (≈ 15.2 µM)	–	–	–	–	–	–
CC1=C(C(=O)Nc2ccc(Cl)c(OCCC(C)C)c2)SCCO1 [Compound 41]	–	–	≥ 2	–	–	–	> 2	–	0.28 (≈ 0.787 µM)	≥ 2	≥ 2	≥ 2	≥ 2	> 100
Cc1sccc1C(=O)Nc1ccc(Cl)c(OCC2CCCC2)c1 [Compound 42]	–	–	≥ 2	–	–	–	> 2	–	0.36 (≈ 1.03 µM)	≥ 2	≥ 2	≥ 2	≥ 2	5 (≈ 14.3 µM)
CC=CCOc1cc(NC(=O)C2=C(CC)OCCS2)ccc1Cl [Compound 43]	–	–	1.3 (≈ 3.67 µM)	–	–	–	> 2	–	0.65 (≈ 1.84 µM)	1.2 (≈ 3.39 µM)	4.5 (≈ 12.7 µM)	1.3 (≈ 3.67 µM)	> 2	11 (≈ 31.1 µM)
Cc1occc1C(=S)Nc1ccc(Cl)c(OCCC(C)C)c1 [Compound 44]	–	–	0.08 (≈ 0.237 µM)	–	–	–	> 10	–	0.0073 (≈ 0.0216 µM)	0.035 (≈ 0.104 µM)	0.06 (≈ 0.178 µM)	0.03 (≈ 0.0888 µM)	0.08 (≈ 0.237 µM)	> 100
CC=CCOc1cc(NC(=O)c2ccsc2C)ccc1Cl [Compound 45]	–	–	0.95 (≈ 2.95 µM)	–	–	–	> 10	–	0.15 (≈ 0.466 µM)	0.6 (≈ 1.86 µM)	0.85 (≈ 2.64 µM)	0.65 (≈ 2.02 µM)	0.5 (≈ 1.55 µM)	87 (≈ 270 µM)
Cc1occc1C(=S)Nc1ccc(Cl)c(OC(=O)OC(C)C)c1 [Compound 46]	–	–	4 (≈ 11.3 µM)	–	–	–	≥ 2	–	0.37 (≈ 1.05 µM)	4.5 (≈ 12.7 µM)	3 (≈ 8.48 µM)	0.6 (≈ 1.7 µM)	5.5 (≈ 15.5 µM)	25 (≈ 70.7 µM)
CON=Cc1cc(NC(=O)c2ccoc2C)ccc1OC [Compound 47]	–	–	≥ 10	–	–	–	≥ 10	–	0.23 (≈ 0.798 µM)	≥ 10	≥ 10	≥ 10	≥ 10	> 100

— patent US5696151A, “Compounds useful for the inhibition of the replication of HIV-1 and HIV-1 mutants” (priority 1995, dated 1997)
